Assay results from patent publication US20080182859A1 (Curis, Inc., priority 2006, published 2008).
pEC50: −log10 of the molar value. Counter-ions that a name gives are not always drawn.

How the values were obtained:
Assay type in all cases: cell-based
[1] = test system: sonic hedgehog pathway; assay: Human hedgehog reporter assay Daoy-GliLuc (DGL); details: Daoy human medulloblastoma cells, Gli-luciferase reporter; read-out: Daoy Avg. EC50
Source text: (§1) Mouse (TM3: mouse Leydig cells; S12: mouse embryonic mesenchymal cells) and human (Daoy: human medulloblastoma cell; HepM: human embryonic palatal mesenchymal cell) cell lines are used to screen small molecules for their ability to modulate the activity of the sonic hedgehog pathway (Table 1, Table 2, and Table 3). Stable hedgehog pathway reporter cell lines are established by specific antibiotic selection following transfection of a reporter plasmid containing a luciferase gene located directly downstream from the gli promoter. Consequently, any observable changes in cellular luciferase activity may be attributed to changes in sonic hedgehog pathway activity in mouse and human cells, respectively, since gli is the major by-product of this pathway. To calculate activity, we generate an eleven point dose curve for each compound using 1:3 dilutions in 96 well assay plates. Each plate tested also contains low and high control to establish maximal pathway activation so to establish/compare a percentage activation of each tested compound (AMAX) on respective plates. Also we calculate EC50 values, or a concentration where the pathway will be exactly 50% activated, for each tested compound to determine potency. In these cell lines, compounds that register >20% AMAX values are considered active.
(§2) Stable hedgehog pathway reporter cell lines are established following specific antibiotic selection following transfection of a reporter plasmid In short, typically cells are plated in MicroTiter-plates at 10,000-20,000 cells per well, in growth media (containing 10%-20% FBS). After 48-72 hrs (HGL and DGL respectively) the media in the assay plates is switched to low-serum containing media (0.5% FBS). At that time compounds are added (at 1-5 μM) to the assay plates, in the presence or absence of hedgehog protein (octyl-modified version; 1-5 ng/ml). After another 24 hrs of incubation, the media from the assay plates is discarded and replaced with luciferase assay-mix. Subsequently, plates are incubated at RT for ˜15-30 mins and then read in a luminometer. [note: addition of the Hedgehog protein, although not critical, will sensitize the assay allowing the identification of weak actives].

[2] = test system: sonic hedgehog pathway; assay: Hedgehog pathway Gli-luciferase reporter assay, TM3 cells; details: TM3 mouse Leydig cells
Source text: as §1, §2

[3] = test system: sonic hedgehog pathway; assay: Human hedgehog reporter assay HEPM-GliLuc (HGL); details: HepM human embryonic palatal mesenchymal cells, Gli-luciferase reporter
Source text: as §1, §2

| Structure (SMILES) | pEC50 [1] | pEC50 [2] | pEC50 [3] |
| --- | --- | --- | --- |
| CN[C@H]1CC[C@@H](N(Cc2cc(-c3cnccn3)ccc2OC)C(=O)c2sc3ccccc3c2Cl)CC1 [330 (R22)] | > 7.30 | 6.60 to 7.30 | 6.60 to 7.30 |
| CN[C@H]1CC[C@@H](N(Cc2cc(-c3ccc(N)nc3)ccc2OC)C(=O)c2sc3c(F)ccc(F)c3c2Cl)CC1 [352 (R18)] | > 7.30 | > 7.30 | > 7.30 |
| CNC(=O)c1cc(-c2ccc(OC)c(CN(C(=O)c3sc4c(F)ccc(F)c4c3Cl)[C@H]3CC[C@H](NC)CC3)c2)ccn1 [356 (R21), 4-(3-{[(3-Chloro-4,7-difluoro-benzo[b]thiophene-2-carbonyl)-(4-methylamino-cyclohexyl)-amino]-methyl}-4-methoxy-phenyl)-pyridine-2-carboxylic acid methylamide dihydrochloride] | > 7.30 | > 7.30 | > 7.30 |
| CN[C@H]1CC[C@@H](N(Cc2cc(-c3ccc(C#N)cc3)ccc2OC)C(=O)c2sc3ccccc3c2Cl)CC1 [Compound 301, 3-Chloro-benzo[b]thiophene-2-carboxylic acid (4′-cyano-4-methoxy-biphenyl-3-ylmethyl)-(4-methylamino-cyclohexyl)-amide hydrochloride] | > 7.30 | > 7.30 | 6.60 to 7.30 |
| CN[C@H]1CC[C@@H](N(Cc2cc(-c3cccc(C#N)c3)ccc2OC)C(=O)c2sc3ccccc3c2Cl)CC1 [Compound 304, 3-Chloro-benzo[b]thiophene-2-carboxylic acid (3′-cyano-4-methoxy-biphenyl-3-ylmethyl)-(4-methylamino-cyclohexyl)-amide hydrochloride] | > 7.30 | > 7.30 | > 7.30 |
| CCOc1ccc(-c2ccc(C(=O)C(F)(F)F)cc2)cc1CN(C(=O)c1sc2ccccc2c1Cl)[C@H]1CC[C@@H](NC)CC1 [Compound 310, 3-Chloro-benzo[b]thiophene-2-carboxylic acid [4-ethoxy-4′-(2,2,2-trifluoro-acetyl)-biphenyl-3-ylmethyl]-(4-methylamino-cyclohexyl)-amide hydrochloride] | > 7.30 | > 7.30 | > 7.30 |
| CCOc1ccc(-c2ccc(C(C)=O)cc2)cc1CN(C(=O)c1sc2ccccc2c1Cl)[C@H]1CC[C@@H](NC)CC1 [Compound 311, 3-Chloro-benzo[b]thiophene-2-carboxylic acid (4′-acetyl-4-ethoxy-biphenyl-3-ylmethyl)-(4-methylamino-cyclohexyl)-amide hydrochloride] | > 7.30 | > 7.30 | 6.60 to 7.30 |
| CN[C@H]1CC[C@@H](N(Cc2cc(-c3ccc(N(C)C=O)cc3)ccc2OC)C(=O)c2sc3ccccc3c2Cl)CC1 [Compound 315, 3-Chloro-benzo[b]thiophene-2-carboxylic acid [4′-(formyl-methyl-amino)-4-methoxy-biphenyl-3-ylmethyl]-(4-methylamino-cyclohexyl)-amide trifluoroacetate] | 6.60 to 7.30 | > 7.30 | 6.00 to 6.60 |
| CN[C@H]1CC[C@@H](N(Cc2cc(-c3ccc(N(C)C(C)=O)cc3)ccc2OC)C(=O)c2sc3ccccc3c2Cl)CC1 [Compound 318, 3-Chloro-benzo[b]thiophene-2-carboxylic acid [4′-(acetyl-methyl-amino)-4-methoxy-biphenyl-3-ylmethyl]-(4-methylamino-cyclohexyl)-amide hydrochloride] | > 7.30 | > 7.30 | > 7.30 |
| CCOc1ccc(-c2cncnc2)cc1CN(C(=O)c1sc2ccccc2c1Cl)[C@H]1CC[C@@H](NC)CC1 [Compound 326, 3-Chloro-benzo[b]thiophene-2-carboxylic acid (2-ethoxy-5-pyrimidin-5-yl-benzyl)-(4-methylamino-cyclohexyl)-amide dihydrochloride] | > 7.30 | 6.60 to 7.30 | 6.60 to 7.30 |
| CN[C@H]1CC[C@@H](N(Cc2cc(-c3cc(C)nc(C)c3)ccc2OC)C(=O)c2sc3ccccc3c2Cl)CC1 [Compound R1, 3-Chloro-benzo[b]thiophene-2-carboxylic acid [5-(2,6-dimethyl-pyridin-4-yl)-2-methoxy-benzyl]-(4-methylamino-cyclohexyl)-amide dihydrochloride] | – | > 7.30 | 6.60 to 7.30 |
| CCOc1ccc(-c2ccc(C#N)cc2)cc1CN(C(=O)c1sc2ccccc2c1Cl)[C@H]1CC[C@@H](NC)CC1 [Compound R2, 3-Chloro-benzo[b]thiophene-2-carboxylic acid (4′-cyano-4-ethoxy-biphenyl-3-ylmethyl)-(4-methylamino-cyclohexyl)-amide hydrochloride] | – | 6.60 to 7.30 | 6.60 to 7.30 |
| CN[C@H]1CC[C@@H](N(Cc2cc(-c3ccnc(C(=O)O)c3)ccc2OC)C(=O)c2sc3c(F)ccc(F)c3c2Cl)CC1 [Compound R6, 4-(3-{[(3-Chloro-4,7-difluoro-benzo[b]thiophene-2-carbonyl)-(4-methylamino-cyclohexyl)-amino]-methyl}-4-methoxy-phenyl)-pyridine-2-carboxylic acid bis(trifluoroacetate)] | – | 6.60 to 7.30 | 6.60 to 7.30 |
| CN[C@H]1CC[C@@H](N(Cc2cc(-c3ccc(S(C)(=O)=O)cc3)ccc2OC)C(=O)c2sc3ccccc3c2Cl)CC1 [Compound R7, 3-Chloro-benzo[b]thiophene-2-carboxylic acid (4′-methanesulfonyl-4-methoxy-biphenyl-3-ylmethyl)-(4-methylamino-cyclohexyl)-amide hydrochloride] | – | > 7.30 | > 7.30 |

The next lines start with results.

| pEC50 [1] | pEC50 [2] | Structure (SMILES) | pEC50 [3] |
| --- | --- | --- | --- |
| > 7.30 | 6.60 to 7.30 | CN[C@H]1CC[C@@H](N(Cc2cc(-c3cncnc3)ccc2OC)C(=O)c2sc3ccccc3c2Cl)CC1 [324 (R20)] | 6.60 to 7.30 |
| > 7.30 | > 7.30 | CN[C@H]1CC[C@@H](N(Cc2cc(-c3cncnc3)ccc2OC)C(=O)c2sc3c(F)ccc(F)c3c2Cl)CC1 [343 (R15)] | > 7.30 |
| > 7.30 | > 7.30 | CN[C@H]1CC[C@@H](N(Cc2cc(-c3cnccn3)ccc2OC)C(=O)c2sc3c(F)ccc(F)c3c2Cl)CC1 [344 (R14)] | > 7.30 |
| > 7.30 | > 7.30 | CNC(=O)c1cc(-c2ccc(OC)c(CN(C(=O)c3sc4c(F)ccc(F)c4c3Cl)[C@H]3CC[C@@H](NC)CC3)c2)ccn1 [356 (R16)] | > 7.30 |
| > 7.30 | > 7.30 | CN[C@H]1CC[C@@H](N(Cc2cc(-c3ccc(C(=O)C(F)(F)F)cc3)ccc2OC)C(=O)c2sc3ccccc3c2Cl)CC1 [Compound 302, 3-Chloro-benzo[b]thiophene-2-carboxylic acid [4-methoxy-4′-(2,2,2-trifluoro-acetyl)-biphenyl-3-ylmethyl]-(4-methylamino-cyclohexyl)-amide trifluoroacetate] | > 7.30 |
| > 7.30 | > 7.30 | CN[C@H]1CC[C@@H](N(Cc2cc(-c3ccc(OC)cc3)ccc2OC)C(=O)c2sc3ccccc3c2Cl)CC1 [Compound 305, 3-Chloro-benzo[b]thiophene-2-carboxylic acid (4,4′-dimethoxy-biphenyl-3-ylmethyl)-(4-methylamino-cyclohexyl)-amide hydrochloride] | 6.00 to 6.60 |
| > 7.30 | 6.00 to 6.60 | CCOc1ccc(-c2cnc(N)nc2)cc1CN(C(=O)c1sc2ccccc2c1Cl)[C@H]1CC[C@@H](NC)CC1 [Compound 325, 3-Chloro-benzo[b]thiophene-2-carboxylic acid [5-(2-amino-pyrimidin-5-yl)-2-ethoxy-benzyl]-(4-methylamino-cyclohexyl)-amide dihydrochloride] | 6.60 to 7.30 |
| – | > 7.30 | CN[C@H]1CC[C@H](N(Cc2cc(-c3ccc(C)nc3)ccc2OC)C(=O)c2sc3cccc(F)c3c2Cl)CC1 [Compound 406, 3-Chloro-4-fluoro-benzo[b]thiophene-2-carboxylic acid [2-methoxy-5-(6-methyl-pyridin-3-yl)-benzyl]-(4-methylamino-cyclohexyl)-amide dihydrochloride] | 6.60 to 7.30 |
| – | 6.60 to 7.30 | CCOc1ccc(-c2ccc(C)nc2)cc1CN(C(=O)c1sc2ccccc2c1Cl)[C@H]1CC[C@@H](NC)CC1 [Compound R4, 3-Chloro-benzo[b]thiophene-2-carboxylic acid [2-ethoxy-5-(6-methyl-pyridin-3-yl)-benzyl]-(4-methylamino-cyclohexyl)-amide dihydrochloride] | 6.60 to 7.30 |
| – | > 7.30 | CN[C@H]1CC[C@@H](N(Cc2cc(-c3ccc(C(N)=O)cc3)ccc2OC)C(=O)c2sc3c(F)ccc(F)c3c2Cl)CC1 [Compound R8, 3-Chloro-4,7-difluoro-benzo[b]thiophene-2-carboxylic acid (4′-carbamoyl-4-methoxy-biphenyl-3-ylmethyl)-(4-methylamino-cyclohexyl)-amide hydrochloride] | > 7.30 |
